According to patent US20180200279A1, “INHIBITION OF HSV-1-ASSOCIATED CORNEAL NEOVASCULARIZATION USING INHIBITORS OF CYCLIN-DEPENDENT KINASE 9” (XAVIER UNIVERSITY OF LOUISIANA, priority 2014, published 2018):

Experiments:
[1] = test system: HSV-1 17syn+ induced corneal neovascularization; assay: HSV-1 corneal neovascularization mouse model, slit-lamp examination score; type: in vivo, Balb/c mice; settings: day 25 post infection; drops 4 times daily for 14 days; 1% TFT, 0.01% flavopiridol, 0.1% DRB; n=10
Experimental: Corneal neovascularization was determined in a masked fashion by slit lamp analysis on days 2, 4, 7, 9, 11, 14, 18, and 25 post-infection (PI) with 5×10^5 PFU/eye of HSV-1 17syn+ using the formula A=(C×0.4×L×n)/2 where C=clock hours of neovascularization; 30° arc is 1 (360° circle with a total of 12); L is the length of the longest neovessel, and A is the area of neovascularization.
All experimental procedures were performed in accordance with the ARVO Resolution for the Use of Animals in Ophthalmic and Vision Research and were approved by the Xavier University Animal Care and Use Committee. Female 20 g Balb/c mice were obtained from Charles River Laboratories. Mice were allowed to equilibrate to their surroundings for 2 weeks and then were anesthetized by intramuscular administration of xylazine (6.6 mg/kg of body weight) and ketamine (100 mg/kg of body weight). The corneas were mildly scarified in a 2×2 cross-hatch pattern and each cornea was inoculated with 5×10^5 PFU of strain HSV 17syn+. […] Average neovascularization/eye was scored using the formula A=(C×0.4×L×π)/2 where C=clock hours of neovascularization; 30° arc is 1 (360° circle with a total of 12); L is the length of the longest neovessel, and A is the area of neovascularization. Students scored (by eye) the animals on the days indicated in a masked fashion using the slit-lamp, and images representative of each group were taken. Clinical scores based on epiphora, inflammation and discharge were calculated where 0=no manifestations, +1=slight manifestations, +2=moderate manifestations, and +3=severe manifestations. […] Ex ovo chick embryo chorioallantoic membrane collagen angiogenesis assays were performed using methods as previously described (Deryugina E I and Quigley J P. Chapter 2. Chick embryo chorioallantoic membrane models to quantify angiogenesis induced by inflammatory and tumor cells or purified effector molecules. Methods Enzymol. 444:21-41. 2008). […]
This was assessed with the dose and frequency that was used in the chemotherapeutic study of HSV-1 corneal neovascularization. […]

[2] = test system: HSV-1 17syn+ ocular infection; assay: HSV-1 ocular infection mouse model, combined clinical score (epiphora, inflammation, discharge); type: in vivo, Balb/c mice; settings: 1% TFT, 0.01% flavopiridol, 0.1% DRB drops
Experimental: The combined clinical score was determined based on epiphora (excess tearing), inflammation and discharge. […], +1=slight manifestations, +2=moderate manifestations, and +3=severe manifestations.
(§1) All experimental procedures were performed in accordance with the ARVO Resolution for the Use of Animals in Ophthalmic and Vision Research and were approved by the Xavier University Animal Care and Use Committee. Female 20 g Balb/c mice were obtained from Charles River Laboratories. Mice were allowed to equilibrate to their surroundings for 2 weeks and then were anesthetized by intramuscular administration of xylazine (6.6 mg/kg of body weight) and ketamine (100 mg/kg of body weight). The corneas were mildly scarified in a 2×2 cross-hatch pattern and each cornea was inoculated with 5×10^5 PFU of strain HSV 17syn+. […] DNA was collected by swabbing the eyes with filter paper, and the eyes were examined with a slit-lamp on PI days 2, 4, 7, 9, 11, 14, 18 and 25. Average neovascularization/eye was scored using the formula A=(C×0.4×L×π)/2 where C=clock hours of neovascularization; 30° arc is 1 (360° circle with a total of 12); L is the length of the longest neovessel, and A is the area of neovascularization. Students scored (by eye) the animals on the days indicated in a masked fashion using the slit-lamp, and images representative of each group were taken. Clinical scores based on epiphora, inflammation and discharge were calculated where 0=no manifestations, +1=slight manifestations, +2=moderate manifestations, and +3=severe manifestations. Mice were sacrificed with CO2 on day 25 post-infection, and eyes were harvested, sectioned, stained with hematoxylin and eosin (H&E) for histological analysis based on peripheral neovascularization and leukocytic infiltration where 0=clear eyes, 0.5=either peripheral neovascularization or leukocytic infiltration, and 1=both peripheral neovascularization and leukocytic infiltration. Ex ovo chick embryo chorioallantoic membrane collagen angiogenesis assays were performed using methods as previously described (Deryugina E I and Quigley J P. Chapter 2. Chick embryo chorioallantoic membrane models to quantify angiogenesis induced by inflammatory and tumor cells or purified effector molecules. Methods Enzymol. 444:21-41. 2008). Briefly, fertilized embryos (Charles River Laboratories, Charleston, S.C.) were incubated at 37.5° C. for 3 days, removed from their shell using a Dremel tool and placed into a covered weighing boat for 7 further days of incubation. […] Four collagen onplants were added per egg on at least 3 separate eggs. After three additional days of incubation, images were taken of each plug using a mini-Vid camera (LW Scientific; Lawrenceville, Ga.) and quantified in a masked fashion based on the percentage of grids that were positive for newly formed blood vessels.
FIG. 1B is the combined clinical score for the treatment groups based on epiphora (excess tearing), inflammation, and discharge.

[3] = test system: HSV-1 17syn+ ocular infection; assay: HSV-1 ocular infection mouse model, H&E histology of eyes (leukocytic infiltration, peripheral neovascularization); type: in vivo, Balb/c mice; settings: day 25 PI; for mouse eyes exhibiting corneal neovascularization / mouse eyes exhibiting leukocytic infiltration: H&E sections; for histological score (scale 0-1) for leukocytic infiltrate and peripheral neovascularization: H&E stained corneal sections
Experimental: Histological score (0-1) was calculated based on leukocytic infiltration and peripheral neovascularization of hematoxylin & eosin (H&E) stained slides of mouse eyes on day 25 PI.
as §1
To confirm the results in FIGS. 1A and 1B, sections of one cornea from each mouse was sectioned, stained with H&E and analyzed for leukocytic infiltrate and peripheral neovascularization of the cornea.

HSV-1 17syn+ = assay: Real-time PCR of HSV-1 DNA on ocular swabs of infected mice; type: in vivo, Balb/c mice; settings: day 25 post infection; 1% TFT, 0.01% flavopiridol, 0.1% DRB drops; n=10
Experimental: SYBR Green semi-quantitative real-time PCR was performed on DNA samples eluted from swabs taken from mouse eyes on days 2, 4, 7, 9, 11, 14, 18 and 25 post infection with 5×10^5 PFU/eye HSV-1 17syn+ using primers specific for HSV-1 DNA polymerase.
All experimental procedures were performed in accordance with the ARVO Resolution for the Use of Animals in Ophthalmic and Vision Research and were approved by the Xavier University Animal Care and Use Committee. Female 20 g Balb/c mice were obtained from Charles River Laboratories. Mice were allowed to equilibrate to their surroundings for 2 weeks and then were anesthetized by intramuscular administration of xylazine (6.6 mg/kg of body weight) and ketamine (100 mg/kg of body weight). The corneas were mildly scarified in a 2×2 cross-hatch pattern and each cornea was inoculated with 5×10^5 PFU of strain HSV 17syn+. […] DNA was collected by swabbing the eyes with filter paper, and the eyes were examined with a slit-lamp on PI days 2, 4, 7, 9, 11, 14, 18 and 25. Average neovascularization/eye was scored using the formula A=(C×0.4×L×π)/2 where C=clock hours of neovascularization; 30° arc is 1 (360° circle with a total of 12); L is the length of the longest neovessel, and A is the area of neovascularization. Students scored (by eye) the animals on the days indicated in a masked fashion using the slit-lamp, and images representative of each group were taken. Clinical scores based on epiphora, inflammation and discharge were calculated where 0=no manifestations, +1=slight manifestations, +2=moderate manifestations, and +3=severe manifestations. […] Ex ovo chick embryo chorioallantoic membrane collagen angiogenesis assays were performed using methods as previously described (Deryugina E I and Quigley J P. Chapter 2. Chick embryo chorioallantoic membrane models to quantify angiogenesis induced by inflammatory and tumor cells or purified effector molecules. Methods Enzymol. 444:21-41. 2008). […]

HSV-1 = assay: In vitro viral inhibition (plaque) assay in CV-1 cells; type: cell-based
Experimental: Numbers of plaque-forming units (PFU) were determined in a standard plaque assay procedure using CV-1 cells.
The HSV-1 strain employed was 17 syn+. Before inoculation, numbers of plaque-forming units (PFU) were determined in a standard plaque assay procedure using CV-1 cells. Pooled primary human umbilical vein endothelial cells (HUVEC) were obtained from Lonza (Basel, Switzerland) and were cultured in Medium 199 (Life Technologies, Carlsbad, Calif.) supplemented with 20% heat-inactivated FBS, penicillin G (100 U/ml), streptomycin ([…]), 2 mM L-glutamine and 1:100 endothelial cell growth supplement (ECGS, BD Biosciences, Bedford, Mass.) on tissue culture plates coated with 0.2% gelatin up to passage 6. Cells were sub-passaged or harvested when they reached ˜80% confluence. For periods of serum-deprivation, HUVEC were incubated for 4 or 16 hours in serum-starvation medium (SSM) containing Medium 199 without phenol red or ECGS but containing 0.5% FBS unless otherwise indicated. In vitro viral inhibition assays with CV-1 cells were performed as previously described (Gong E Y. Methods for screening and profiling inhibitors of herpes simplex viruses. Methods Mol Biol. 1030:303-313. 2013).

[4] = Ocular safety and tolerability of the formulation, mouse eyes; type: in vivo; settings: dose and frequency of the HSV-1 corneal neovascularization study
Experimental: (§2) This was assessed with the dose and frequency that was used in the chemotherapeutic study of HSV-1 corneal neovascularization. FIG. 1A presents the results of slit-lamp examination (SLE) scores of the corneas of the four treatment groups beginning on post-inoculation day 2 and continuing to 25 days following infection.

[5] = Ocular safety and tolerability of the formulation, rabbit eyes; type: in vivo; settings: dose and frequency of the HSV-1 corneal neovascularization study
Experimental: as §2

Row | SMILES | slit-lamp examination (SLE) score of corneal neovascularization [1] | combined clinical score (epiphora, inflammation, discharge; 0 to +3) ([2]; day 11) | combined clinical score (epiphora, inflammation, discharge; 0 to +3) ([2]; day 25) | mouse eyes exhibiting corneal neovascularization [3] [%] | mouse eyes exhibiting leukocytic infiltration [3] [%] | histological score (scale 0-1) for leukocytic infiltrate and peripheral neovascularization [3] | quantitative real-time PCR score (HSV-1 DNA) on ocular swabs (HSV-1 17syn+) | concentration at which HSV-1 replication was significantly reduced (HSV-1) [µM] | IC50 (HSV-1; read-out: average IC50 of HSV-1 replication) [µM] | safety and tolerability of the formulation in the eye [4] | safety and tolerability of the formulation in the eye [5]
1 | O=c1[nH]c(=O)n([C@H]2C[C@H](O)[C@@H](CO)O2)cc1C(F)(F)F [TFT, triflurothymidine] | 0.0±0.0 | 0.002±0.41 | 0.00±0.00 | 0 | 30 | 0.278±0.088 | 0.0±0.0 |  |  |  | 
2 | OC[C@H]1O[C@@H](n2cnc3cc(Cl)c(Cl)cc32)[C@H](O)[C@@H]1O [DRB, 5,6-Dichlorobenzimidazole-1-β-D-ribofuranoside] | 0.042±0.60 | 0.00±0.0 | 0.042±0.60 | 0 | 10 | 0.25±0.134 | 0.042±0.60 | 25 | 86.7 | safe and well-tolerated | safe and well-tolerated
